Test results reported in patent US11857601B2, “Pharmaceutical composition for cancer treatment comprising fusion protein including IL-2 protein and CD80 protein and anticancer drug” (GI INNOVATION, INC., priority 2020, dated 2024).

Experiments:
4T1 cells = experiment: mGI-101 and Abemaciclib in 4T1 allotransplanted tumor model; assay type: in vivo, BALB/c mice; details: 11 mice per group
Experimental: 4T1 cells were purchased from ATCC (USA) and cultured in RPMI1640 medium (Gibco) containing 10% FBS (Gibco) and 1% antibiotic/antifungal agent (Gibco). The cultured cells were harvested using trypsin (Gibco) and then suspended in PBS. In order to establish an allotransplanted tumor model, 1×10^5 of 4T1 cells were subcutaneously injected into the back of BALB/c female mice (8-week-old).
A certain period of time after cell inoculation of the tumor grafts of the mice, the tumor volume was measured for animals with no abnormalities in the health condition of the animals, and the mice were randomly selected and assigned, each group including 11 mice.
The death of the mouse, the type of general symptoms, the date of onset, and the severity of symptoms were observed once a day during the test period, and recorded for each subject.
The tumor volume before administration of each subject was set as the value measured at the time of grouping, and the anti-tumor efficacy was evaluated as compared with the vehicle control.
All statistical calculations were performed using Prism 8.0 (Graph Pad Software Inc, USA). The comparison of tumor volume measurements was made through two-way analysis of variance followed by Tukey's multiple comparison test. A p value of less than 0.05 was considered significant.

Human CTLA-4 = target: T1, Human CTLA-4 (Homo sapiens, UniProt P16410); experiment: Binding ability to CTLA-4 (Octet RED 384)
T1 construct: purchased Sino Biological 11159-H08H
T1 sequence (P16410 36-223): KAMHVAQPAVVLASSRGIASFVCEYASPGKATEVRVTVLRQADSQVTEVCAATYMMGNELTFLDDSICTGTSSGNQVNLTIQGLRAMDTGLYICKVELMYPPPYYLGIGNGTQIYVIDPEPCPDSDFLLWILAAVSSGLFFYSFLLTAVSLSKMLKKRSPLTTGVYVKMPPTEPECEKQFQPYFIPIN
Experimental: In order to identify the binding affinity between the fusion protein and its ligand, the binding affinity was measured using Octet RED 384.
AR2G biosensor (Amine Reactive 2nd gen, ForteBio, Cat: 18-5092) was previously hydrated with 200 μl of distilled water in a 96-well microplate (GreinerBio-one, Cat: 655209). A ligand (CTLA-4, Human CTLA-4/CD152, His tag, Sino Biological, Cat: 11159-H08H) to be attached to the AR2G biosensor was diluted with 10 mM acetate buffer (pH 5, AR2G reagent Kit, ForteBio, Cat: 18-5095) to a concentration of 5 μg/ml. […] Activation buffer was prepared by mixing 20 mM EDC and 10 mM s-NHS (AR2G reagent Kit, ForteBio, Cat: 18-5095) in distilled water. 80 μl of each reagent was placed in a 384-well microplate (GreinerBio-one, Cat: 781209) and the program was set up.
Binding kinetics measurements were performed using the Octet RED 384 instrument (ForteBio, Pall Life Science) with agitation at 30° C. and 1,000 rpm. The binding ability for CTLA-4 was measured using the Amine Reactive 2 generation (AR2G) biosensor chip, and the binding ability for PD-L1 was measured using the Nickel charged Tris-NTA (Ni-NTA) biosensor chip. The AR2G biosensor chip was activated with a combination of 400 mM EDC and 100 mM sulfo-NHS. […]

[1] = system: NCl-H292 cancer cell line with human PBMCs; experiment: T cell activity inhibition by cancer cells expressing PD-L1 and CTLA-4 (IFN-γ ELISA); assay type: cell-based; details: 50 nM, 3 days
Experimental: NCl-H292 cancer cell line expressing PD-L1 and CTLA-4 was cultured for 3 hours in a culture medium containing 10 μg/ml Mitomycin C (Sigma), and then Mitomycin C was removed by washing with the culture medium. Thereafter, 5×10^4 cells of the Mitomycin C-treated NCl-H292 cancer cell line were incubated with 1×10^5 cells of human PBMCs in a 96-well microplate. Here, treatment with 5 μg/ml of PHA (Sigma) was performed for T cell activity. […] After 3 days, the supernatant of the cell culture was collected and the amount of IFN-γ was quantified using an ELISA kit (Biolegend).
As a positive control, human PBMCs stimulated with PHA in the absence of the Mitomycin C-treated NCl-H292 cancer cell line were used; and as a negative control, human PBMCs stimulated with PHA in the presence of the Mitomycin C-treated NCl-H292 cancer cell line were used. An experimental method using the IFN-7 ELISA kit was carried out in the same manner as in Experimental Example 9.3.

human PBMCs = experiment: IFN-γ production in PHA-treated CFSE-labeled PBMCs (ELISA); assay type: cell-based; details: PBMCs + PHA 5 μg/ml; 1, 10 or 100 nM; 6 days; compared with GI101C1, GI101C2 or IL-2
Experimental: Peripheral blood mononuclear cells (PBMCs) isolated from a human were labeled with carboxyfluorescein succinimidyl ester (CFSE) by being reacted with 1 μM CellTrace CFSE dye at 37° C. for 20 minutes. CFSE not bound to the cells was removed by being reacted for 5 minutes with a culture medium having a 5-fold volume of the staining reaction solution and then by being centrifuged at 1,300 rpm for 5 minutes. […]
The cells were analyzed by FACS, and human IFN-γ present in the culture medium was measured using an ELISA kit (Biolegend, San Diego, CA, USA, cat No. 430103).
The amount of human IFN-γ secreted into the supernatant of each sample in which the cells had been cultured was measured using a human IFN-γ ELISA kit (Biolegend, cat No. 430103). […]
After the reaction was completed, the plate was washed and secondary antibodies (detection antibodies) were added thereto. […] Finally, […] was added thereto to stop the color development reaction, and the absorbance at 450 nm was measured with Epoch Microplate Spectrophotometer (BioTek instruments, Winooski, VT, USA), and the concentration was calculated.

Substance | number of mice with tumor growth inhibition rate of 30% or more (4T1 cells) [mice] | number of mice with tumor growth inhibition rate of 50% or more (4T1 cells) [mice] | number of mice with tumor growth inhibition rate of 80% or more (4T1 cells) | binding ability for CTLA-4 (Human CTLA-4) | immune response inhibited by the cancer cell line overexpressing PD-L1 (IFN-γ) [1] | signaling of CTLA-4 expressed on effector T cells [1] | IFN-γ secretion (human PBMCs)
mGI101: fusion protein: mouse CD80, Ig hinge, Fc domain, linker, IL-2 variant (2M) (R38A, F42A); SEQ ID NO: 15 | 3 | 1 | no mouse | – | – | – | –
GI101: fusion protein: human CD80 fragment, Ig hinge, Fc domain, linker, IL-2 variant (2M) (R38A, F42A); SEQ ID NO: 9 | – | – | – | high binding ability | effectively activated | inhibited | remarkable increase
